Measurements as given in US20240400986A1, “MEMBRANE BOUND COMPOSITIONS AND METHODS RELATING TO SAME” (FLAGSHIP PIONEERING INNOVATIONS VII, LLC, priority 2021, published 2024).
Peptide text beside a SMILES is read from it. * marks the point of attachment. Cbz = O=C(OCc1ccccc1)*

Key:
[1] = system: neuronal cell line derived from human neuroblastoma; settings: neuronal cells, dose 100 nM, 24 hours
[2] = system: cardiomyocytic cell line derived from human ventricular heart tissue; experiment: Small molecule compound screen of gigasome production in cardiomyocytic monocultures; settings: for Number of Gigasomes Produced: Table 22, cardiomyocytes, 24 hours;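 for all read-outs here: gigasomes shed into the culture medium were imaged by confocal microscopy and counted as round particles lacking nuclear signal, extrapolated to the whole well, fold change is relative to DMSO vehicle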
Method: For the screening, a total of 100 randomly organized compounds (TargetMol) were divided in 5 groups. Each group included an untreated condition, a vehicular DMSO control, and a known high-gigasome producing condition to comparatively study gigasome production rates. As a cell death control group, 500 nM Staurosporine was added to induce apoptosis. Cultures were incubated for 24 hours under gigasome inducing conditions at concentrations ranging between 10 nM and 10,000 nM. […] The Zeiss ZEN Blue software was used to distribute imaging fields of view (positions) to create an unbiased imaging sample of a well. 5 images were taken using a Zeiss LSM 900 confocal microscope. […] The BioApps ZEN software package was used to perform cell nucleus segmentation and counting. After 24 hours, gigasomes were harvested from the cell culture media by gently removing from the top of each 96-well ⅔ of the total volume without disturbing the cell layer (containing the settled gigasomes) and by adding to each well the same amount of PBS containing 0.5 mM EDTA. The wells were washed twice gently, and the gigasome-containing media/0.5 mM EDTA PBS wash was transferred into the well of a 384-well glass bottom plate. Cells remaining in the 96-well plates were assessed for viability using CellTiter-Glo (Promega).
For gigasome analysis in 384-well plates, the Zeiss ZEN Blue software was used to distribute positions to create an unbiased imaging sample of a well. 6 images per well were taken using a Zeiss LSM 900 confocal microscope. […] A watershed binary segmentation step was performed to separate grouped objects. For each particle in the mask, characteristic parameters of the particle were calculated and saved. […] Particles of interest were identified by thresholding by area and circularity. […] Circularity, defined by the formula 4pi(area/perimeter^2, was set to be between 0.8, where a value of 1.0 is a perfect circle, and a value of 0 is a line. Gigasomes were identified from the particles of interest by thresholding by mean nuclear signal. The nuclear signal threshold was set using a value equal to one quarter of a threshold value calculated by the Li auto-threshold algorithm applied to the distribution of all particles of interest. Particles of interest with nuclear signal below this value were considered “negative” for nuclear material and were identified as gigasomes. A sampling factor was calculated to extrapolate the total quantity of a type of object (particles, particles of interest, gigasomes) in the well. The sampling factor was the percentage of the well's area that was imaged. […] In some experiments, the number of cells in the cell cultures were estimated with a cell counter. […] The normalized quantity or distribution of objects was described as a quantity or distribution of objects per 1000 cells.

[3] = system: neuronal cells; experiment: Live microscopy of neuronal gigasome generation; format: cell-based, human; settings: 0.1 M MG-132; live time-lapse microscopy; compared to DMSO control
Method: Cells were stained with Hoechst 33342 to visualize nuclei and nuclear material, CellTracker Green to visualize cytoplasm, and MitoTracker Deep Red to visualize mitochondria. Gigasome production was then induced with various drugs as described in Example 1. Cell cultures were imaged every 15-30 minutes under a time lapse for up to 48 hours (FIGS. 1A and 1B). For image analysis, ImageJ and Zeiss ZEN Blue software was used. Gigasomes were identified and quantified as distinct circular/spherical vesicles in the extracellular space of the neurons, between 1-20 μm in diameter. Gigasomes were identified based on having positive neuronal cytoplasmic signal and negative Hoechst 33342 signal. The presence of mitochondria in gigasomes was measured via respective fluorescent signal.
Time-lapse montages were produced and edited to show the formation of gigasomes from parent neuronal cells after treatment with […] MG-132 (FIGS. 1A and 1B). Gigasomes and parent cells were identified and tracked throughout the duration of the time lapse. In some experiments, gigasomes produced by parent cells in MG-132 treatment groups were identified.

[4] = Homo sapiens, Cardiomyocyte, 24 h, read-out: Fold Change of Gigasomes Produced vs. DMSO

CC(C)C[C@@H](C=O)NC(=O)[C@H](CC(C)C)NC(=O)[C@H](CC(C)C)NC(=O)OCc1ccccc1 [MG-132, reference compound] (Cbz-Leu-Leu-Leu-aldehyde)
Viability [1]: 50-75%
fold induction at 0.01 µM [2, 4]: 1.5 to 1.75
fold induction at 0.1 µM [2, 4]: > 4
Number of Gigasomes Produced ([2]; dose 10 nM): 150-175
Number of Gigasomes Produced ([2]; dose 100 nM): >400
gigasome production [3]: increase
